Results on 21 molecules are retold here after US20250304567A1, “PYRROLIDIONE DERIVATIVES AS INHIBITORS OF NF KAPPA B INDUCING KINASE” (priority 2022, published 2025).

Like-named read-outs stand apart in the source and are kept apart here. Bounds are passed on as bounds.

Assay [1] addresses Recombinant Human NF-kappaB-Inducing Kinase (NIK/MAP3K14) (Homo sapiens, UniProt Q99558). Put plainly: Inhibition of auto-phosphorylation of recombinant human NIK/MAP3K14 activity (AlphaScreen). It counts as biochemical. As to conditions: 5 μM ATP, 1 nM NIK, average if tested more than once. The protocol:
Assay 1: Inhibition of Auto-Phosphorylation of Recombinant Human NF-kappaB-Inducing Kinase (NIK/MAP3K14) Activity (AlphaScreen™)
NIK/MAP3K14 auto-phosphorylation activity was measured using the AlphaScreen™ (αscreen) format (Perkin Elmer). All compounds tested were dissolved in dimethyl sulfoxide (DMSO) and further dilutions were made in assay buffer. The final DMSO concentration was 0.7% (v/v) in assays. The assay buffer was 50 mM Tris pH 7.5 containing 1 mM EGTA (ethylene glycol tetraacetic acid), 1 mM DTT (dithiothreitol), 0.1 mM Na3VO4, 5 mM MgCl2, and 0.01% Tween®20. The assays were carried out in 384 well Proxiplates (Perkin Elmer). The incubations consisted of the compound, 5 μM Adenosine-5′-triphosphate (ATP), and 1 nM NIK/MAP3K14. Incubations were initiated by the addition of GST-tagged NIK/MAP3K14 enzyme, carried out for 2 h at 25° C. and terminated by addition of stop buffer containing anti-phospho-IKK Ser176/180 antibody. Protein A Acceptor and Glutathione-Donor beads were added before reading using an EnVision Multilabel Plate Reader (Perkin Elmer). The signal obtained in the wells was normalized using high (full enzyme activity, 0.7% DMSO) and low controls (no enzyme activity, 0.7% DMSO, no ATP). IC50's were determined by fitting a sigmoidal curve to % inhibition of control versus Log10 compound concentration.

The subject of assay [2] is p-IKKa levels in L363 (NIK translocated multiple myeloma) cells. As to the kind of experiment: Effect of compounds on p-IKKa levels in L363 (NIK translocated multiple myeloma) cells (AlphaLISA SureFire Ultra p-IKKa Ser176/180). The class given is cell-based, human. Here is the method:
Assay 2: Effect of Compounds on p-IKKa Levels in L363 (NIK Translocated Multiple Myeloma) Cells
All compounds tested were dissolved and serially diluted in DMSO, 1:3 dilution for 11 points in an Echo compatible plate. 100% DMSO was added to columns 12 and 24 of the plate to serve as high and low signal controls. This compound plate was used to spot 20 nL of compound or DMSO into a Greiner 384 well TC plate (781080). The final DMSO concentration was 0.3% (v/v) in cell assays. Human L363 cells (ATCC) were cultured in RPM11640 medium supplemented with GlutaMax, non-essential amino acids, sodium pyruvate and 10% fetal bovine serum. Cells were routinely maintained at densities of 0.2×10^6 cells per ml-2×10^6 cells per mL at 37° C. in a humidified 5% CO2 atmosphere incubator. Cells were passaged twice a week splitting back to obtain the low density. The day before the assay, cells were washed twice in HBSS (Hank's Balanced Salt Solution), resuspended in Dulbecco's Modified Eagle Medium (DMEM)+0.5% IgG and protease free BSA (Jackson Immuno Research Laboratories), +/−250 ng/ml recombinant human B-cell activating factor (BAFF/BLyS/TNFSF13B) and incubated overnight at 37° C. in a humidified 5% CO2 atmosphere (bulk stimulation with or without BAFF). The next day, the cell concentration was adjusted to 1×10^7 cells/ml in DMEM+/−250 ng/ml BAFF+/−10 μM MG132 and plated at 10 μl/well into compound or DMSO spotted 384 well TC plates. Seeded cells were incubated at 37° C. in a humidified 5% CO2 atmosphere for 6 h. After 6 h, the plates were removed from the incubator and cell lysis was achieved by the addition of 2.5 μl 5× lysis buffer containing protease and phosphatase inhibitors, followed by shaking on a plate shaker at room temperature for 15 min. At the end of this incubation, lysed cells were sequentially treated and incubated with acceptor and donor bead mixes according to the manufacturer's protocol for a 1 plate/2-incubation suspension cell assay (AlphaLISA SureFire Ultra p-IKKa (Ser 176/180) Assay Kit (Perkin Elmer). Plates were read using an EnVision Multilabel Plate Reader (Perkin Elmer). Within an experiment, a concentration response curve for each compound was run in duplicate. The signal obtained in the test wells was normalized using high signal (BAFF stimulated cells, DMSO, MG132) and low signal (unstimulated cells, DMSO) controls. To determine the IC50, a sigmoidal curve was fitted to the plot of % inhibition versus Log10 compound concentration.

The mark [3] stands for this setting: Homo sapiens, L-363, p-IKKa levels in L363 cells, average if tested more than once, read-out: Assay 2 IC50.
[4] abbreviates: p-IKKa levels in L363 cells, average if tested more than once, read-out: Assay 2 IC50.

Recombinant Human NF-kappaB-Inducing Kinase (NIK/MAP3K14), sequence (Q99558 whole entry): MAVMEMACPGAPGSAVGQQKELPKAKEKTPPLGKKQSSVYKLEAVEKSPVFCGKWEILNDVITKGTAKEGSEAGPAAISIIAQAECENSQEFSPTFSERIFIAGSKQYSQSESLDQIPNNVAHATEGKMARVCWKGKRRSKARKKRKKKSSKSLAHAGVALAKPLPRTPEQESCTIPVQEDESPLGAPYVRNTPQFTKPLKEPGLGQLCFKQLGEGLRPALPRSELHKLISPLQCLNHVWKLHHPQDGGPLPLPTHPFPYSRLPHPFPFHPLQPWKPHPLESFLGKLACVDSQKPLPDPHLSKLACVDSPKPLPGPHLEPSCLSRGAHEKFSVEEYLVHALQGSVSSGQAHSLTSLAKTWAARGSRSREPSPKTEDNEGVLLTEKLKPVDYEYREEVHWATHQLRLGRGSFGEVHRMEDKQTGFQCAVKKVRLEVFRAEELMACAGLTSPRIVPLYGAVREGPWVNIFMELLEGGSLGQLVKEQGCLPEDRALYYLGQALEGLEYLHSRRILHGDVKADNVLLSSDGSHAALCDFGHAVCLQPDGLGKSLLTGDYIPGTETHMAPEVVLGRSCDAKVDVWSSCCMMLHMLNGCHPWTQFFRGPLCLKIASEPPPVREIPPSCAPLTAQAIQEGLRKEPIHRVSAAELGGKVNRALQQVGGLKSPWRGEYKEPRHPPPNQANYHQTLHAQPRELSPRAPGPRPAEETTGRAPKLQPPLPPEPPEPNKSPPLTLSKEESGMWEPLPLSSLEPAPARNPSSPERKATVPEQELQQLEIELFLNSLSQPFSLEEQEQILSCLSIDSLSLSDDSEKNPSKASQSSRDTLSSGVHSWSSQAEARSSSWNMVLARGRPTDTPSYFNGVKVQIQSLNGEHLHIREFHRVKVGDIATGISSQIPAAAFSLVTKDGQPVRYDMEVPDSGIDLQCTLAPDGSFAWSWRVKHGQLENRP

Regarding `CN1CC[C@@](O)(c2ccnc(-c3ccn(-c4ccnc(Nc5ccn(C)n5)n4)n3)c2)C1=O` (racemic) [Example 30, (R,S)-3-Hydroxy-1-methyl-3-(2-(1-(2-((1-methyl-1H-pyrazol-3-yl)amino)pyrimidin-4-yl)-1H-pyrazol-3-yl)pyridin-4-yl)pyrrolidin-2-one], the IC50 was under 0.1 µM in assay [1] and 0.1 to 0.5 µM in assay [2] (setting [3]).

As to `CN1CCC(O)(c2ccnc(-c3cccc(-c4ccnc(Nc5ccn(C)n5)n4)n3)c2)C1=O` (racemic) [Example 31, (R,S)-3-Hydroxy-1-methyl-3-(6′-(2-((1-methyl-1H-pyrazol-3-yl)amino)pyrimidin-4-yl)-[2,2′-bipyridin]-4-yl)pyrrolidin-2-one], the IC50 in assay [1] and in assay [2] (setting [3]) was over 0.501 µM each time. With `Cc1cn(-c2ccnc(Nc3ccn(C)n3)n2)nc1-c1cc(C2(O)CCN(C)C2=O)ccn1` (racemic) [Example 32, (R, S)-3-Hydroxy-1-methyl-3-(2-(4-methyl-1-(2-((1-methyl-1H-pyrazol-3-yl)amino)pyrimidin-4-yl)-1H-pyrazol-3-yl)pyridin-4-yl)pyrrolidin-2-one], the figures for the IC50 in assay [1] and in assay [2] (setting [3]) were under 0.1 µM and over 0.501 µM, respectively. For `CN1C(=O)[C@@](O)(c2cccc(-c3nc(-c4ccnc(Nc5ccn(C)n5)n4)cs3)c2)C[C@H]1C(F)(F)F` (relative stereo) [Example 38, (trans)-3-hydroxy-1-methyl-3-(3-(4-(2-((1-methyl-1H-pyrazol-3-yl)amino)pyrimidin-4-yl)thiazol-2-yl)phenyl)-5-(trifluoromethyl)pyrrolidin-2-one], the values for the IC50 in assay [1] and in assay [2] (setting [4]) were under 0.1 µM and 0.1 to 0.5 µM, respectively.

On to `CN1CC[C@@](O)(c2cccc(-c3nc(-c4ccnc(Nc5cnn(C6CCOC6)c5)n4)cs3)c2)C1=O` (single isomer, unassigned) [Example 18], for which the IC50 in assay [1] is under 0.1 µM; in assay [2] (setting [3]), 0.1 to 0.5 µM. With `CN1CC[C@@](O)(c2cccc(-c3nc(-c4ccnc(Nc5cnn(C6CCOC6)c5)n4)cs3)c2)C1=O` (single isomer, unassigned) [Example 19], the IC50 in assay [1] and in assay [2] (setting [4]) was under 0.1 µM throughout. As for `CN1CC[C@@](O)(c2cc(-c3csc(-c4ccnc(Nc5ccn(C)n5)n4)n3)ccc2F)C1=O` (single isomer, unassigned) [Example 24], the IC50 in assay [1] and in assay [2] (setting [3]) was over 0.501 µM each time. Regarding `CN1CC[C@](O)(c2cc(-c3csc(-c4ccnc(Nc5ccn(C)n5)n4)n3)ccc2F)C1=O` (single isomer, unassigned) [Example 25], the half-maximal inhibitory concentration (IC50) in assay [1] is 0.1 to 0.5 µM; in assay [2] (setting [3]), over 0.501 µM. As for `CN1CCC(O)(c2cc(F)cc(-c3csc(-c4ccnc(Nc5ccn(C)n5)n4)n3)c2)C1=O` (single isomer, unassigned) [Example 26, 3-(3-fluoro-5-(2-(2-((1-methyl-1H-pyrazol-3-yl)amino)pyrimidin-4-yl)thiazol-4-yl)phenyl)-3-hydroxy-1-methylpyrrolidin-2-one], the IC50 in assay [1] and in assay [2] (setting [4]) was over 0.501 µM throughout. As to `CN1CCC(O)(c2cc(F)cc(-c3csc(-c4ccnc(Nc5ccn(C)n5)n4)n3)c2)C1=O` (single isomer, unassigned) [Example 27, 3-(3-fluoro-5-(2-(2-((1-methyl-1H-pyrazol-3-yl)amino)pyrimidin-4-yl)thiazol-4-yl)phenyl)-3-hydroxy-1-methylpyrrolidin-2-one], the IC50 in assay [1] was under 0.1 µM; in assay [2] (setting [4]) it was 0.1 to 0.5 µM. As to `CN1CCC(O)(c2ccc(F)c(-c3csc(-c4ccnc(Nc5ccn(C)n5)n4)n3)c2)C1=O` (single isomer, unassigned) [Example 28, 3-(4-fluoro-3-(2-(2-((1-methyl-1H-pyrazol-3-yl)amino)pyrimidin-4-yl)thiazol-4-yl)phenyl)-3-hydroxy-1-methylpyrrolidin-2-one], the IC50 in assay [1] and in assay [2] (setting [4]) was under 0.1 µM throughout.

With `CN1CCC(O)(c2ccc(F)c(-c3csc(-c4ccnc(Nc5ccn(C)n5)n4)n3)c2)C1=O` (single isomer, unassigned) [Example 29, 3-(4-fluoro-3-(2-(2-((1-methyl-1H-pyrazol-3-yl)amino)pyrimidin-4-yl)thiazol-4-yl)phenyl)-3-hydroxy-1-methylpyrrolidin-2-one], the IC50 is 0.1 to 0.5 µM in assay [1] and over 0.501 µM in assay [2] (setting [4]). For `CN1CCC(O)(c2ccnc(-c3nc(-c4ccnc(Nc5ccn(C)n5)n4)cs3)c2)C1=O` (single isomer, unassigned) [Example 33, 3-hydroxy-1-methyl-3-(2-(4-(2-((1-methyl-1H-pyrazol-3-yl)amino)pyrimidin-4-yl)thiazol-2-yl)pyridin-4-yl)pyrrolidin-2-one] the same measures were over 0.501 µM and over 0.501 µM. The corresponding values for `CN1CCC(O)(c2ccnc(-c3nc(-c4ccnc(Nc5ccn(C)n5)n4)cs3)c2)C1=O` (single isomer, unassigned) [Example 34, 3-hydroxy-1-methyl-3-(2-(4-(2-((1-methyl-1H-pyrazol-3-yl)amino)pyrimidin-4-yl)thiazol-2-yl)pyridin-4-yl)pyrrolidin-2-one] are under 0.1 µM and 0.1 to 0.5 µM. For `CN1CC(F)(F)C(O)(c2cccc(-c3nc(-c4ccnc(Nc5ccn(C)n5)n4)cs3)c2)C1=O` (single isomer, unassigned) [Example 35, 4,4-difluoro-3-hydroxy-1-methyl-3-(3-(4-(2-((1-methyl-1H-pyrazol-3-yl)amino)pyrimidin-4-yl)thiazol-2-yl)phenyl)pyrrolidin-2-one], the IC50 in assay [1] and in assay [2] (setting [4]) was over 0.501 µM in each case.

On to `CN1CC(F)(F)C(O)(c2cccc(-c3nc(-c4ccnc(Nc5ccn(C)n5)n4)cs3)c2)C1=O` (single isomer, unassigned) [Example 36, 4,4-difluoro-3-hydroxy-1-methyl-3-(3-(4-(2-((1-methyl-1H-pyrazol-3-yl)amino)pyrimidin-4-yl)thiazol-2-yl)phenyl)pyrrolidin-2-one], for which the IC50 in assay [1] is under 0.1 µM; in assay [2] (setting [4]), 0.1 to 0.5 µM. For `CC(Nc1nccc(-c2nc(-c3cccc(C4(O)CCN(C)C4=O)c3)cs2)n1)c1cnn(C)c1` (single isomer, unassigned) [Example 39] the same measures were under 0.1 µM and under 0.1 µM.

Take `CC(Nc1nccc(-c2nc(-c3cccc(C4(O)CCN(C)C4=O)c3)cs2)n1)c1cnn(C)c1` (single isomer, unassigned) [Example 40]: the results for the IC50 in assay [1] and in assay [2] (setting [4]) were under 0.1 µM and over 0.501 µM, respectively. Consider `CC(Nc1nccc(-c2nc(-c3cccc(C4(O)CCN(C)C4=O)c3)cs2)n1)c1cc[nH]n1` (single isomer, unassigned) [Example 41], for which the IC50 is under 0.1 µM in assay [1] and 0.1 to 0.5 µM in assay [2] (setting [4]). In the case of `Cc1cncnc1Nc1nccc(-c2csc(-c3cccc([C@]4(O)CCN(C)C4=O)c3)n2)n1` [Example 105, (R)-3-hydroxy-1-methyl-3-(3-(4-(2-((5-methylpyrimidin-4-yl)amino)pyrimidin-4-yl)thiazol-2-yl)phenyl)pyrrolidin-2-one], the 50% inhibitory concentration (IC50) in assay [2] (Homo sapiens, L-363, read-out: Assay 2 IC50) was over 0.501 µM. Consider `Cc1cc(CNc2nccc(-c3csc(-c4cccc([C@]5(O)CCN(C)C5=O)c4)n3)n2)n[nH]1` [Example 195], for which the IC50 in assay [2] (setting [3]) is over 0.501 µM.
